The record followed here is patent US12084444B2, “Spiro-lactam NMDA modulators and methods of using same” (Tenacia Biotechnology (Hong Kong) Co., Limited, priority 2016, dated 2024).

Structures are written as SMILES.

In data set [1] the target is T1, NMDAR2A expressing HEK cell membranes (Homo sapiens, UniProt Q05586+Q12879).
T1 construct: expressed in transfected cells; host or cells: HEK cells (membrane extract)
The data set can be described thus: NMDAR agonist assay, [3H]MK-801 binding, NMDAR2A. It is filed as biochemical. Details: key to NMDAR2A B: log EC50: 0=−; ≥1×10^−9 M (e.g., −8)=+; <1×10^−9 M (e.g., −10)=++. The following applies: 0.25 h, 50 μM glutamate; read-out: NMDAR2A A: % maximal [3H]MK-801 binding relative to 1 mM glycine. The essentials:
(§1)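 HEK membranes (300 μg protein) expressing each subtype were preincubated 15 min at 25 °C with 50 μM glutamate and compound (1×10^−15–1×10^−7 M) or 1 mM glycine. [3H]MK-801 (0.3 μCi) binding then ran 15 min under nonequilibrium conditions, followed by filtration. EC50 and % maximal binding against 1 mM glycine came from three-parameter fits of baseline-subtracted DPM (N=2).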

Data set [2] addresses T2, NMDAR2A expressing HEK cell membranes (Homo sapiens, UniProt Q12879).
T2 construct: expressed in transfected cells; host or cells: HEK cells (membrane extract)
The experiment in a line: NMDAR agonist assay, [3H]MK-801 binding, NMDAR2A. In kind it is biochemical. Also noted: key to NMDAR2A B: log EC50: 0=−; ≥1×10^−9 M (e.g., −8)=+; <1×10^−9 M (e.g., −10)=++. Conditions: 50 μM glutamate. In a few lines: as §1

The target in data set [3] is T3, NMDAR2B expressing HEK cell membranes (Homo sapiens, UniProt Q05586+Q13224).
T3 construct: expressed in transfected cells; host or cells: HEK cells (membrane extract)
The experiment in a line: NMDAR agonist assay, [3H]MK-801 binding, NMDAR2B. In kind it is biochemical. Conditions: 50 μM glutamate. The essentials: as §1

Data set [4] deals with T4, NMDAR2C expressing HEK cell membranes (Homo sapiens, UniProt Q14957).
T4 construct: expressed in transfected cells; host or cells: HEK cells (membrane extract)
The experiment in a line: NMDAR agonist assay, [3H]MK-801 binding, NMDAR2C. It is filed as biochemical. The following applies: 50 μM glutamate. How it is done: (§2) Assays were conducted as described by Moskal et al., “GLYX-13: a monoclonal antibody-derived peptide that acts as an N-methyl-D-aspartate receptor modulator,” Neuropharmacology, 49, 1077-87, 2005. These studies were designed to determine if the test compounds act to facilitate NMDAR activation in NMDAR2A, NMDAR2B, NMDAR2C or NMDAR2D expressing HEK cell membranes as measured by increases in [^3H]MK-801 binding.
(§3) In the assay, 300 μg of NMDAR expressing HEK cell membrane extract protein was preincubated for 15 minutes at 25° C. in the presence of saturating concentrations of glutamate (50 μM) and varying concentrations of test compound (1×10^−15 M-1×10^−7 M), or 1 mM glycine. Following the addition of 0.3 μCi of [^3H]MK-801 (22.5 Ci/mmol), reactions were again incubated for 15 minutes at 25° C. (nonequilibrium conditions). Bound and free [^3H]MK-801 were separated via rapid filtration using a Brandel apparatus.
In analyzing the data, the DPM (disintegrations per minute) of [^3H]MK-801 remaining on the filter were measured for each concentration of test compound or for 1 mM glycine. The DPM values for each concentration of a ligand (N=2) were averaged. The baseline value was determined from the best fit curve of the DPM values modeled using the GraphPad program and the log(agonist) vs. response(three parameters) algorithm was then subtracted from all points in the dataset. The % maximal [^3H]MK-801 binding was then calculated relative to that of 1 mM glycine: all baseline subtracted DPM values were divided by the average value for 1 mM glycine. The EC50 and % maximal activity were then obtained from the best fit curve of the % maximal [^3H]MK-801 binding data modelled using the GraphPad program and the log(agonist) vs. response(three parameters) algorithm. […]

For data set [5], the target named is T5, NMDAR2D expressing HEK cell membranes (Homo sapiens, UniProt O15399).
T5 construct: expressed in transfected cells; host or cells: HEK cells (membrane extract)
The data set can be described thus: NMDAR agonist assay, [3H]MK-801 binding, NMDAR2D. In kind it is biochemical. The following applies: 50 μM glutamate. The method, then:
as §2, §3
(§4) In analyzing the data, the DPM (disintegrations per minute) of [^3H]MK-801 remaining on the filter were measured for each concentration of test compound or for 1 mM glycine. The DPM values for each concentration of a ligand (N=2) were averaged. The baseline value was determined from the best fit curve of the DPM values modeled using the GraphPad program and the log(agonist) vs. response(three parameters) algorithm was then subtracted from all points in the dataset. The % maximal [^3H]MK-801 binding was then calculated relative to that of 1 mM glycine: all baseline subtracted DPM values were divided by the average value for 1 mM glycine. The EC50 and % maximal activity were then obtained from the best fit curve of the % maximal [^3H]MK-801 binding data modelled using the GraphPad program and the log(agonist) vs. response(three parameters) algorithm.
(§5) The tables below summarize the results for the wild type NMDAR agonists NMDAR2A, NMDAR2B, NMDAR2C, and NMDAR2D, and whether the compound is not an agonist (−), is an agonist (+), or is a strong agonist (++), where column A is based on the % maximal [^3H]MK-801 binding relative to 1 mM glycine (−=0; <100%=+; and >100%=++); and column B is based on log EC50 values (0=−; ≥1×10^−9 M (e.g., −8)=+; and <1×10^−9 M (e.g., −10)=++).

Data set [6] addresses T6, NMDAR2D expressing HEK cell membranes (Homo sapiens, UniProt O15399+Q05586).
T6 construct: expressed in transfected cells; host or cells: HEK cells (membrane extract)
The experiment in a line: NMDAR agonist assay, [3H]MK-801 binding, NMDAR2D. In kind it is biochemical. Conditions: 50 μM glutamate; read-out: NMDAR2D B: log EC50 (converted). How it is done:
as §2, §3, §4, §5

A further data set can be described thus: IV pharmacokinetics. Details: species or system Sprague Dawley rats. Conditions: Sprague Dawley, in vivo, rat, 2 mg/kg, normal saline. The method, then:
Sprague Dawley rats were dosed intravenously using a normal saline formulation containing 2 mg/kg of the compounds identified in the below table. The table below summarizes the results of the IV pharmacokinetics.

The nature of data set [7]: Oral pharmacokinetics (plasma, brain, CSF). In kind it is in vivo, Sprague Dawley rats. Conditions: Sprague Dawley, plasma, po, rat, per os, 10 mg/kg. The method, then:
In another experiment, Sprague Dawley rats were dosed per os using a normal saline formulation containing 10 mg/kg of the compounds identified in the table below. Plasma, brain, and CSF samples were analyzed at various time points over a 24 hour period. The table below summarizes the results of the oral pharmacokinetics.

Another data set has as its system Sprague Dawley rats. The experiment in a line: Porsolt forced swim test. In kind it is in vivo. The following applies: 0.1 mg/kg; for % reduction in float time: relative to vehicle group. How it is done: A non-clinical in vivo pharmacology study (Porsolt assay) was performed to measure antidepressant-like effects. A negative control (0.5% sodium carboxymethyl cellulose in 0.9% sterile saline vehicle) and a positive control (fluoxetine) are shown for comparison against test compound. The study allowed for the evaluation of the effects of each compound on the Porsolt forced swim test as assessed by the rats' response (reduced floating time) during a 5-minute swimming test.
Male 2-3 month old Sprague Dawley rats were used (Harlan, Indianapolis, IN). Rats were housed in Lucite cages with aspen wood chip bedding, maintained on a 12:12 light:dark cycle (lights on at 5 AM), and given ad libitum access to Purina lab chow (USA) and tap water throughout the study.
The Porsolt forced swim test adapted for use in rats was performed as described by Burgdorf et al., (The long-lasting antidepressant effects of rapastinel (GLYX-13) are associated with a metaplasticity process in the medial prefrontal cortex and hippocampus. Neuroscience 308:202-211, 2015). Animals were placed in a 46 cm tall×20 cm in diameter clear glass tube filled to 30 cm with tap water (23±1° C.) for 15 min on the first day (habituation) and 5 min on the subsequent test day. Positive control fluoxetine was dosed 3 times (24 h, 5 h and 1 h) prior to testing. Animals were tested 1 h or 24 h post-dosing with the test compounds or vehicle. Animals received a 15 min habituation session 1 day before the 5 min test. Water was changed after every other animal. Animals were videotaped, and floating time as defined as the minimal amount of effort required to keep the animals head above water was scored offline by a blinded experimenter with high inter-rater reliability (Pearson's r>0.9).
Each compound tested at dose level shown. Significance vs. vehicle group for each experiment is marked. […] A compound marked “No” was not statistically significant from vehicle. Data was averaged for test compound and vehicle groups (N approximately 8 per group) and the percent reduction in floating for group treated with test compound relative to group treated with vehicle is shown.

T3 sequence (Q13224 27-1484, other chains not shown): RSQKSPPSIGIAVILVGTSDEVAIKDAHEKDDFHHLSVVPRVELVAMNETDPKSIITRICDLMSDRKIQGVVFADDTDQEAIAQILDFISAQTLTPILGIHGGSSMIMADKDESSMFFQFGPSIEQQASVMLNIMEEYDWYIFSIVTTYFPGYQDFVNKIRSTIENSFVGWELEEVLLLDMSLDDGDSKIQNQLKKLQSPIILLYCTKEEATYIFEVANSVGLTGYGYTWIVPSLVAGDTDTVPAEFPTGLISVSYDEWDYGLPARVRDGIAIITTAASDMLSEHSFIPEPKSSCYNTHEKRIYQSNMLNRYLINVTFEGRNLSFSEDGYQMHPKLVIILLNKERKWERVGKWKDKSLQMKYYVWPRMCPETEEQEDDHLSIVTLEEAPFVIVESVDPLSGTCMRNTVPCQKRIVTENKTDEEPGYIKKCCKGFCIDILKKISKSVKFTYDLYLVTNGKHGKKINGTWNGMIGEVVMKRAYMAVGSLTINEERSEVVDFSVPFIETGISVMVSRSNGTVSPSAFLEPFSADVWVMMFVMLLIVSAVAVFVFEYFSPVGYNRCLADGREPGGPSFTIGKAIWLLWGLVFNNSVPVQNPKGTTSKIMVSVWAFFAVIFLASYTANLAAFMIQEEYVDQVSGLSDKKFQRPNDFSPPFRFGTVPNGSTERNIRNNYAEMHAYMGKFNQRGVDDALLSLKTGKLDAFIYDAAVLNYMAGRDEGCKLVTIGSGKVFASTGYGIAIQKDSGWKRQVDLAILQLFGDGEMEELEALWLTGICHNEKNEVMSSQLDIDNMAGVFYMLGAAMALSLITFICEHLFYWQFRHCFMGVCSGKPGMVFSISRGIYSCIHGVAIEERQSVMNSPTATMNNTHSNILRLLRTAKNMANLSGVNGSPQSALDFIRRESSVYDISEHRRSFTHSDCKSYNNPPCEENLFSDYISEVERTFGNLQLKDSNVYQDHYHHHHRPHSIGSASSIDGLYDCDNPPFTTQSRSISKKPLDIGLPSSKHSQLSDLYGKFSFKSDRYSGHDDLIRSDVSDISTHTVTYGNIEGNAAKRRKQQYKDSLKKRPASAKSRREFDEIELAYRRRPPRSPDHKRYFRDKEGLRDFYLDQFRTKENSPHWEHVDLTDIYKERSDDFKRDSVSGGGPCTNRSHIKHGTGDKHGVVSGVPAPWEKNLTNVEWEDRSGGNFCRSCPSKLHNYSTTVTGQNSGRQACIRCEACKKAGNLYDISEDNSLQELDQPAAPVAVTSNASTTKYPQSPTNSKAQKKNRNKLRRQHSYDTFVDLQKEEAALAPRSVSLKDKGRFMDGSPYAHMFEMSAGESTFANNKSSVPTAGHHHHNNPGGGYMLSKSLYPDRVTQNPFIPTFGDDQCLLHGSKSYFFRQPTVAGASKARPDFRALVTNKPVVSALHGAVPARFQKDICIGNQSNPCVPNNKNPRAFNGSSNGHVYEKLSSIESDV
T5 sequence (O15399 28-1336, other chains not shown): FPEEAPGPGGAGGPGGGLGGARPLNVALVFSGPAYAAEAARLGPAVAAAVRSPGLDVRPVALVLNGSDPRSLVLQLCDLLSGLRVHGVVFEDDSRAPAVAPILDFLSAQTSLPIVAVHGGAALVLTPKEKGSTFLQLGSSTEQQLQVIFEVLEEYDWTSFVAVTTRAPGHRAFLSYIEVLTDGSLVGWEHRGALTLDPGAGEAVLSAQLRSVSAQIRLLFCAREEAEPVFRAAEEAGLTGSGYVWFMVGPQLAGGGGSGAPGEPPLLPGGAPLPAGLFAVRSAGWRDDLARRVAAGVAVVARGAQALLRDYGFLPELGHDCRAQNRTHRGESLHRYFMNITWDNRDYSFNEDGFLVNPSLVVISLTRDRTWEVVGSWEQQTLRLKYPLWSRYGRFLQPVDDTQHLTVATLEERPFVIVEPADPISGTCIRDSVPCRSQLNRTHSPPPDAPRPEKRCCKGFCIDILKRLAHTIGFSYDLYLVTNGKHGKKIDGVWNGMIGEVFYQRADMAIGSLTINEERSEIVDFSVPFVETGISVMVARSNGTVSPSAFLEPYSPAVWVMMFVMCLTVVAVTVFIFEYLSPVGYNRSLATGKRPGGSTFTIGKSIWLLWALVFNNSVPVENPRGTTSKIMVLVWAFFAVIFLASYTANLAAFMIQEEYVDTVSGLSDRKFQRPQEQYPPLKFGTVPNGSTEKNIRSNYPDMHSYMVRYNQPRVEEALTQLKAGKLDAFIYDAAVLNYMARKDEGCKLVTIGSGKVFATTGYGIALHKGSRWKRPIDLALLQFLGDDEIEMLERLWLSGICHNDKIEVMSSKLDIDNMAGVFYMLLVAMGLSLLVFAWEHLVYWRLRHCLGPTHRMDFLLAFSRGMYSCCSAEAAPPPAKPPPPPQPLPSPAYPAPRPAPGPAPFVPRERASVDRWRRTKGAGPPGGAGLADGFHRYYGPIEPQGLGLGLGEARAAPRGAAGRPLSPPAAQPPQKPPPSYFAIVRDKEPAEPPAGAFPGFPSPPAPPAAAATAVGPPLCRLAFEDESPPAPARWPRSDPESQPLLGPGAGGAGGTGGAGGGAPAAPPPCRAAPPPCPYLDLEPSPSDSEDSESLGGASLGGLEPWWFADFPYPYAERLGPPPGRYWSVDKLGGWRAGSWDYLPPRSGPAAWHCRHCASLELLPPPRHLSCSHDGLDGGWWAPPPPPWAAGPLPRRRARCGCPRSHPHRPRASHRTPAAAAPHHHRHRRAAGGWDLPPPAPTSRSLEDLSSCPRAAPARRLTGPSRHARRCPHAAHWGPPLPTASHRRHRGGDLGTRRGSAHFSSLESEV
T6 sequence (O15399 28-1336, other chains not shown): as above
T1 sequence (Q12879 23-1464, other chains not shown): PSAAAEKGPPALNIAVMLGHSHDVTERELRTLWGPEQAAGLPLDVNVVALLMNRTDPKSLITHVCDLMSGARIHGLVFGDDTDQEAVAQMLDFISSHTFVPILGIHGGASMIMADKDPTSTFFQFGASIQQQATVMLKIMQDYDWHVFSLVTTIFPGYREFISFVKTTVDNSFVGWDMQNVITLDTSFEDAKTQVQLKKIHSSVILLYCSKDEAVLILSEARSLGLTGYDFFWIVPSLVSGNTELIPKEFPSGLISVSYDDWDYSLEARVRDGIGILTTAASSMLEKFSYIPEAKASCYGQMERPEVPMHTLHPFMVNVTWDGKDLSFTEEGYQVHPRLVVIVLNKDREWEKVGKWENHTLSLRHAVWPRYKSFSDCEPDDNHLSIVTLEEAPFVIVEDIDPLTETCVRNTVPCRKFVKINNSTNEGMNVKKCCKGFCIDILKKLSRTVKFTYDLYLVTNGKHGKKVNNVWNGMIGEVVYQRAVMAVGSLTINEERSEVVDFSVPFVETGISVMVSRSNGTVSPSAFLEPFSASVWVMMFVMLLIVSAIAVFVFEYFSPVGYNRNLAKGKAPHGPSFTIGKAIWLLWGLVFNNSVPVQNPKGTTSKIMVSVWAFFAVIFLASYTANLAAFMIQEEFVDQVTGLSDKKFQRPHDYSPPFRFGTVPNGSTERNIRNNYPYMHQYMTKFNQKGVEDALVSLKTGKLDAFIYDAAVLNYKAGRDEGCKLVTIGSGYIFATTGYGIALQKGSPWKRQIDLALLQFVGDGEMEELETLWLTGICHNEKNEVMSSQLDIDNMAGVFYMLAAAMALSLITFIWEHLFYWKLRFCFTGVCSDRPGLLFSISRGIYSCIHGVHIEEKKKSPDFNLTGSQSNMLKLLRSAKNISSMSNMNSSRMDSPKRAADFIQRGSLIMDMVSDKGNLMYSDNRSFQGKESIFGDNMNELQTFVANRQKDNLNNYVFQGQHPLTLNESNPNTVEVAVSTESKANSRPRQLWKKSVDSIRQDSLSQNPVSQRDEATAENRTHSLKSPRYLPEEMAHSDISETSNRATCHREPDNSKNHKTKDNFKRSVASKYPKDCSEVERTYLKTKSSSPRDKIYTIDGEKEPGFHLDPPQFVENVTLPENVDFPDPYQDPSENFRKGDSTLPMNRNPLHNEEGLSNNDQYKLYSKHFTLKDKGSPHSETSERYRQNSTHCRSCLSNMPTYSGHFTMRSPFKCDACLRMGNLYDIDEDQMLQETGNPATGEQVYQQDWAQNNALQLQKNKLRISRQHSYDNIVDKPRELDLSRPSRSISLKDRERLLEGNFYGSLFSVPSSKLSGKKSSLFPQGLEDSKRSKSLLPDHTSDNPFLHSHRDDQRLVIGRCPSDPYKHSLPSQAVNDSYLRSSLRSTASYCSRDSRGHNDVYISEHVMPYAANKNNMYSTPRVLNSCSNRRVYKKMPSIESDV

As for `COc1ccc(CN2C[C@]3(CCNC(=O)C3)C2=O)cc1` [AA-1, 2-(4-methoxybenzyl)-2,7-diazaspiro[3.5]nonane-1,6-dione], the Emax in [1] was determined as 0%. Moreover, the “NMDAR2A B: log EC50” value in [2] is reported as “−”. In addition, in data set [3] (read-out: NMDAR2B B: log EC50 (converted)), the EC50 was less than 1 nM. In data set [3] (0.25 h, read-out: NMDAR2B A: % maximal [3H]MK-801 binding relative to 1 mM glycine), the Emax was less than 100%. For the same compound, in data set [4], the “NMDAR2C A: % maximal [3H]MK-801 binding relative to 1 mM glycine” value is reported as “− (−=0)”. Further, the “NMDAR2D A: % maximal [3H]MK-801 binding relative to 1 mM glycine” value in data set [5] is given as “+ (<100%=+)”. Further, the concentration giving a half-maximal response (EC50) in data set [6] was not below 1 nM. In “IV pharmacokinetics”, this compound gave an AUC(0-t) of 3430 ng·h/mL, a C0 of 2340 ng/mL, a clearance of 9.69 mL/min/kg and a half-life of 67.2 min. Also, in the data set “IV pharmacokinetics” (read-out: Vss), the Vd was found to be 0.76 L/kg. In addition, in [7], the AUC(0-t) was determined as 15500 ng·h/mL, the bioavailability worked out at 90% and the concentration peaked (Cmax) at 8920 ng/mL. In addition, the Tmax in [7] (normal saline) worked out at 19.8 min. In the data set with Sprague Dawley rats (1 h post-dose), the Significance vs. vehicle result is given as “Yes (found to be statistically significant (p<=0.05) from vehicle at dose level shown)” and the “% reduction in float time” value worked out at 74.4%. In addition, in the data set with Sprague Dawley rats (24 h post-dose), the Significance vs. vehicle entry was “Yes (found to be statistically significant (p<=0.05) from vehicle at dose level shown)” and the “% reduction in float time” value was 69.50%.
